Series [1] is described as follows: xn = mol fraction of the nth substance listed. The note with it: 101 kPa, Liquid, x2 = 0; for speed of sound: Linear variable-path acoustic interferometer.
The conditions of series [2]: 101 kPa, Liquid; for speed of sound: Linear variable-path acoustic interferometer.

Numbers after ± are expanded uncertainties.

The term speed of sound denotes how fast a sound wave travels through the sample. The term mass density denotes mass per unit of volume. As usually defined, the viscosity is the internal friction of a fluid under shear. Turning to `CCCCO` [butan-1-ol] + ClC(Cl)Cl, in series [1] (298.15 K), the speed of sound came out at 1235 ± 3 m/s, the mass density is recorded as 806.33 ± 0.5 kg/m3 and the viscosity is 2.585 ± 0.034 mPa·s. In addition, in series [1] (308.15 K), the speed of sound is 1210 ± 3 m/s, the mass density came to 798.38 ± 0.54 kg/m3 and the viscosity was determined as 2.012 ± 0.028 mPa·s.

Regarding `CCCCO` [butan-1-ol], in series [2] (298.15 K), the mass density amounted to 806.33 ± 0.5 kg/m3, the viscosity was determined as 2.585 ± 0.034 mPa·s and the speed of sound is 1235 ± 3 m/s. For the same compound, in series [2] (308.15 K), the mass density is 798.38 ± 0.54 kg/m3, the viscosity was found to be 2.012 ± 0.028 mPa·s and the speed of sound turned out to be 1210 ± 3 m/s.

Take `CO` [methanol] + ClC(Cl)Cl: in series [1] (298.15 K), the speed of sound came to 1109 ± 3 m/s, the mass density turned out to be 786.3 ± 0.39 kg/m3 and the viscosity is 0.551 ± 0.009 mPa·s. In addition, in series [1] (308.15 K), the speed of sound is 1076 ± 3 m/s, the mass density turned out to be 776.6 ± 0.43 kg/m3 and the viscosity came out at 0.493 ± 0.009 mPa·s.

In the case of `CO` [methanol], in series [2] (298.15 K), the mass density turned out to be 786.3 ± 0.39 kg/m3, the viscosity stood at 0.551 ± 0.009 mPa·s and the speed of sound was determined as 1109 ± 3 m/s. In series [2] (308.15 K), the mass density stood at 776.6 ± 0.43 kg/m3, the viscosity amounted to 0.493 ± 0.009 mPa·s and the speed of sound is listed as 1076 ± 3 m/s.

As to `CCCO` [propan-1-ol] + ClC(Cl)Cl, in series [1] (298.15 K), the speed of sound stood at 1212 ± 3 m/s, the mass density was 800.82 ± 0.4 kg/m3 and the viscosity is reported as 1.95 ± 0.024 mPa·s. For the same compound, in series [1] (308.15 K), the speed of sound turned out to be 1177 ± 3 m/s, the mass density amounted to 792.51 ± 0.44 kg/m3 and the viscosity is 1.533 ± 0.02 mPa·s.

In the case of `CCO` [ethanol], in series [2] (298.15 K), the mass density came out at 784.32 ± 0.39 kg/m3, the viscosity was 1.084 ± 0.014 mPa·s and the speed of sound worked out at 1144 ± 3 m/s. For the same compound, in series [2] (308.15 K), the mass density turned out to be 775.51 ± 0.43 kg/m3, the viscosity came out at 0.902 ± 0.013 mPa·s and the speed of sound is given as 1111 ± 3 m/s.

On to `CCCO` [propan-1-ol], for which, in series [2] (298.15 K), the mass density worked out at 800.82 ± 0.4 kg/m3, the viscosity is 1.95 ± 0.024 mPa·s and the speed of sound stood at 1212 ± 3 m/s. In addition, in series [2] (308.15 K), the mass density amounted to 792.51 ± 0.44 kg/m3, the viscosity is on record as 1.533 ± 0.02 mPa·s and the speed of sound was determined as 1177 ± 3 m/s.

For `CCO` [ethanol] + ClC(Cl)Cl, in series [1] (298.15 K), the speed of sound is given as 1144 ± 3 m/s, the mass density worked out at 784.32 ± 0.39 kg/m3 and the viscosity was 1.084 ± 0.014 mPa·s. Moreover, in series [1] (308.15 K), the speed of sound was determined as 1111 ± 3 m/s, the mass density was 775.51 ± 0.43 kg/m3 and the viscosity turned out to be 0.902 ± 0.013 mPa·s.

Turning to `ClC(Cl)Cl` [trichloromethane], in series [2] (298.15 K), the mass density was 1478.82 ± 1.2 kg/m3, the viscosity stood at 0.556 ± 0.01 mPa·s and the speed of sound is recorded as 985 ± 3 m/s. For the same compound, in series [2] (308.15 K), the mass density came to 1459.45 ± 1.2 kg/m3, the viscosity came out at 0.513 ± 0.009 mPa·s and the speed of sound was 950 ± 2 m/s.
